Source: article PMC8512853, “Synthesis, Bioactivity, Pharmacokinetic and Biomimetic Properties of Multi-Substituted Coumarin Derivatives” (Molecules, 2021)

Assays:
[1] = Inhibition of AAPH induced linoleic acid oxidation (lipid peroxidation)
Source text: AAPH induced linoleic acid oxidation has been developed as a quick and reliable antioxidant activity assay. It is based on the inhibition of linoleic acid oxidation, initiated by the thermal free radical producer 2,2′-azobis(2-amidinopropane) dihydrochloride (AAPH), providing a measure of how efficiently antioxidants protect against lipid oxidation in vitro. Oxidation of exogenous linoleic acid by AAPH is followed by UV spectrophotometry at 234 nm in a highly diluted sample [38].
For the reference sample in a UV cuvette, 10 μL of the test sample (100 μM diluted in DMSO), 10 μL linoleic acid (LA) (16 mM), and buffer solution (pH 7.4) were added to a final volume of 1ml. For the measurement sample, in a UV cuvette, 10 μL of test sample, 50 μL AAPH (40 mM), 10 μL LA, and buffer solution were added to a final volume of 1 mL. Standard and blank samples were prepared in the same way using DMSO (solvent) instead of the tested coumarin analogues. The absorbance was measured after 2 min at 37 °C at 234 nm. Results were obtained via the following Equation (5):(5) %Inhibition=(Standard−Blank)−(Reference Sample−Measurement Sample)/(Standard−Blank) × 100

A375 cells = test: MTT cytotoxicity assay, A375; type: cell-based, human; conditions: for cytotoxicity at 100 µM: Homo sapiens, A-375, 24 h, A375, 100 μΜ, read-out: Cell Toxicity A375 % (100 μΜ)
Description: (§1) Furthermore, the coumarin compounds synthesized in this study were also evaluated for their cytotoxicity against A549 (adenocarcinomic human alveolar basal epithelial cells) and A375 (human melanoma) cell lines.
(§2) This protocol was used for the evaluation of cell viability and all the cell lines. It must be noted that this assay describes the count of cells that remain alive after the treatment. For the experimental procedure a standard solution of MTT 1mg/mL in PBS was prepared which after filtration ([…] filter (Millipore, Carrigtwohill, Ireland)) was stored in the dark (4–8 °C) until use. In a 96-well plate, HaCaT, A549 and A375 cells were seeded in a number of 30 × 10^4 cells/well for each evaluation series respectively. The cells were incubated (37 °C, 5% CO2) for 24 h, followed by the addition of the tested analogues (100 μM, diluted in DMEM) and another 24-h incubation. Next, appropriate amount of MTT was added in the tested wells and the plate returned to the incubator for the next 4 h for the formation of the formazan crystals. The formazan crystals were then redissolved by adding DMSO (100 μL) and stirring lightly for 40 min, after which the absorbance was measured in a plate reader at 540 nm with a reference absorbance of 720 nm.
(§3) All samples were tested in triplicate, against a control (only cells), blank (no cells), and positive control (100 μM standard silibinin solution was used as a “cell-killing” standard).

[2] = target: T1, human serum albumin (HSA) (Homo sapiens, UniProt P02768); test: HSA chromatography and estimated plasma protein binding; type: in vitro ADME; conditions: for fraction unbound: human, immobilized human serum albumin (HSA) column, Equation (2) from logk10, pH 7.00, read-out: %PPB estimated plasma protein binding (converted); for logk10 (HSA retention factor): pH 7.00, 10% acetonitrile
T1 construct: purchased CHIRAL PAK
Description: The novel coumarin derivatives were also studied using the immobilized protein column HSA. An HSA chromatographic column provides estimates on the binding affinities of chemicals to human serum albumin, which is the most abundant plasma protein and is related to drug efficacy, drug—drug pharmacokinetic interactions, and drug safety. HSA binding can be considered to represent almost the total plasma protein binding of a drug.
Retention factors on the HSA stationary phase were measured using as eluent PBS at pH = 7.00 and a flow rate of 1 mL/min in the presence of 10% acetonitrile.
(2) % PPB=101∗10^logk10/1+10^logk10
(§4) The physicochemical and biomimetic properties of the new coumarin analogues were studied using liquid chromatography (HPLC) in 220–230 nm Two types of chromatographic columns were used: (i) immobilized artificial membrane (IAM) ([…].PC.DD.2, Regis Technologies) column and (ii) human serum albumin (HSA) (CHIRAL PAK) column.
(§5) The training set consisted of 25 neutral and slightly acidic compounds. Their IAM retention factors were measured at pH 7.40 on a IAM.PC.DD.2 column. The mobile phase consisted of acetonitrile solvent (CH3CN) in various concentrations (10%, 15%, 20%, 25%, 30%) and a flow rate of 3 mL/min was selected. Their HSA retention factors were measured at pH 7.00 on HSA column. The mobile phase consisted of acetonitrile solvent (CH3CN) in 10% concentration and a flow rate of 1 mL/min was selected.
(§6) The different pH values (7.00 for HSA and 7.40 for IAM) were measured with an electronic pH meter MP125 and were achieved by preparing suitable buffers of phosphates and chlorides (0.12 g KH2PO4, 0.72 g Na2HPO4·2H2O, 4.00 g NaCl and 0.10 g KCl). Sodium citrate solution was used to determine the dead time, which was deducted from the results at the end of measurements. The elution time of each coumarin analogue was measured at least three times. Retention times were converted into logk values, which represent the logarithm of the retention indexes, using Equation (8). (8) logk=log(tr−t0/t0) where tr is the retention time of the coumarin derivative and t0 is the dead time.

A549 cells = test: MTT cytotoxicity assay, A549; type: cell-based, human; conditions: 24 h; for cytotoxicity at 100 µM: Homo sapiens, A549, 100 μΜ, read-out: Cell Toxicity A549 % (100 μΜ)
Description: as §1, §2, §3

[3] = IAM chromatography (IAM.PC.DD.2 column) and estimated human oral absorption; type: in vitro ADME; conditions: for %HOA estimated human oral absorption: Equation (1) from logkw and physicochemical properties; for logkw (IAM retention factor): pH 7.40, IAM.PC.DD.2, intercept at pure aqueous phase
Description: The immobilized artificial membrane (IAM) chromatographic behavior of the 25 novel coumarin derivatives was studied. IAM stationary phases consisting of monolayers of phospholipids (e.g., phosphatidylcholine, PC) immobilized on a propylamine–silica support can simulate interactions of chemicals with cell membranes.
Using an IAM.PC.DD2 column (Regis Technologies) as the stationary phase with PBS as the mobile phase at pH = 7.40, and a flow rate of 3 mL/min in the presence of acetonitrile fractions (C%) of 10%, 15%, 20%, 25%, and 30%, a logkC% value was obtained via the retention time for each concentration of CH3CN. Retention factors were then used to plot logkC% as a function of acetonitrile fraction. The intercept of the linear regression corresponds to the logkw, corresponding to pure aqueous phase.
(1) % HOA=100/1+10^−(2.17+0.88*logkw−0.006*MW−0.83*A−0.53*F^*++1.18*F^*−)
as §4, §5, §6

T1 sequence (P02768 25-609): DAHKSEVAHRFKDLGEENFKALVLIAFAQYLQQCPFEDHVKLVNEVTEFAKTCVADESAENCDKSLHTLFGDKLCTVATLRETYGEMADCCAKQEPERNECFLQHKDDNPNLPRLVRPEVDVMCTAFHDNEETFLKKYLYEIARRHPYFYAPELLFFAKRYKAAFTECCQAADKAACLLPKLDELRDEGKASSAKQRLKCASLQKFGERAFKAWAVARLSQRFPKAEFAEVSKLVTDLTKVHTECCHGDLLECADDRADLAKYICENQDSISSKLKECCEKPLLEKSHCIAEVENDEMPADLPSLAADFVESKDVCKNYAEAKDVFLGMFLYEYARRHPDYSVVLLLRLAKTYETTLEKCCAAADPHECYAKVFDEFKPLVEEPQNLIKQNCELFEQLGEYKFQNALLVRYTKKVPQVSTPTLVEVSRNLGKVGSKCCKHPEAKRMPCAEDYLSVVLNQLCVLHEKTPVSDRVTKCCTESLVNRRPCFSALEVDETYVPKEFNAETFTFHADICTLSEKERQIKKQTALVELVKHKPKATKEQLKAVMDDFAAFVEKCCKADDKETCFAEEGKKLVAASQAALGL

With CC(=O)Oc1cccc2oc(=O)c(-c3ccccc3Cl)c(C)c12 [Compound 3a, 5-acetyloxy-3-(2-chlorophenyl)-4-methyl-chromen-2-one] the IC50 [1] was 71.9 µM, the cytotoxicity at 100 µM (A375 cells) was 38.7% and the fraction unbound [2] was 0.202. For the same molecule, the “logk10 (HSA retention factor)” value [2] was 0.57, the “Cell Toxicity A549 % (100 μΜ)” value (A549 cells) was “no” and the “%HOA estimated human oral absorption” value [3] was 100%. The “logkw (IAM retention factor)” value [3] was 3.58.

CC(=O)Oc1cccc2oc(=O)c(-c3cccc(Cl)c3)c(C)c12 [Compound 3b, 5-acetyloxy-3-(3-chlorophenyl)-4-methyl-chromen-2-one] showed an IC50 [1] of 91.5 µM, a cytotoxicity at 100 µM (A375 cells) greater than 60% and a fraction unbound [2] of 0.128. The “logk10 (HSA retention factor)” value [2] was 0.80, the cytotoxicity at 100 µM (A549 cells) was 24.6% and the “%HOA estimated human oral absorption” value [3] was 99.8%. For the same molecule, the “logkw (IAM retention factor)” value [3] was 2.88.

Molecule CC(=O)Oc1cccc2oc(=O)c(-c3ccc(Cl)cc3)c(C)c12 [Compound 3c, 5-acetyloxy-3-(4-chlorophenyl)-4-methyl-chromen-2-one] has an IC50 [1] of 75.1 µM, a cytotoxicity at 100 µM (A375 cells) of 24.8% and a fraction unbound [2] of 0.091. The “logk10 (HSA retention factor)” value [2] was 0.96, the “Cell Toxicity A549 % (100 μΜ)” value (A549 cells) was “no” and the “%HOA estimated human oral absorption” value [3] was 99.9%. The “logkw (IAM retention factor)” value [3] was 3.05.

For CC(=O)Oc1cccc2oc(=O)c(-c3ccccc3F)c(C)c12 [Compound 3d, 5-acetyloxy-3-(2-fluorophenyl)-4-methyl-chromen-2-one], the cytotoxicity at 100 µM (A375 cells) was 28.5%, the fraction unbound [2] was 0.149 and the “logk10 (HSA retention factor)” value [2] was 0.73. The cytotoxicity at 100 µM (A549 cells) was 7.5%, the “%HOA estimated human oral absorption” value [3] was 99.7% and the “logkw (IAM retention factor)” value [3] was 2.56.

With CC(=O)Oc1cccc2oc(=O)c(-c3cccc(F)c3)c(C)c12 [Compound 3e, 5-acetyloxy-3-(3-fluorophenyl)-4-methyl-chromen-2-one] the “AAPH % inhibition (100 μΜ)” value ([1]; 100 μΜ) was “inactive and no”, the cytotoxicity at 100 µM (A375 cells) was greater than 60% and the fraction unbound [2] was 0.149. For the same molecule, the “logk10 (HSA retention factor)” value [2] was 0.73, the cytotoxicity at 100 µM (A549 cells) was 8.9% and the “%HOA estimated human oral absorption” value [3] was 99.7%. For the same molecule, the “logkw (IAM retention factor)” value [3] was 2.47.

In the case of CC(=O)Oc1cccc2oc(=O)c(-c3ccc(F)cc3)c(C)c12 [Compound 3f, 5-acetyloxy-3-(4-fluorophenyl)-4-methyl-chromen-2-one], the cytotoxicity at 100 µM (A375 cells) is reported as 35.8%, the fraction unbound [2] is reported as 0.206 and the “logk10 (HSA retention factor)” value [2] is reported as 0.57. For the same molecule, the “Cell Toxicity A549 % (100 μΜ)” value (A549 cells) was “no”, the “%HOA estimated human oral absorption” value [3] was 99.7% and the “logkw (IAM retention factor)” value [3] was 2.52.

Molecule CC(=O)Oc1cccc2oc(=O)c(-c3cccc(Br)c3)c(C)c12 [Compound 3g, 5-acetyloxy-3-(3-bromophenyl)-4-methyl-chromen-2-one] has an IC50 [1] of 50.7 µM, a cytotoxicity at 100 µM (A375 cells) of 7.02% and a fraction unbound [2] of 0.12. The “logk10 (HSA retention factor)” value [2] was 0.83, the “Cell Toxicity A549 % (100 μΜ)” value (A549 cells) was “no” and the “%HOA estimated human oral absorption” value [3] was 100.0%. The “logkw (IAM retention factor)” value [3] was 4.77.

With CC(=O)Oc1ccc(-c2c(C)c3ccccc3oc2=O)cc1 [Compound 3h, 3-(4-acetyloxyphenyl)-4-methyl-chromen-2-one] the IC50 [1] was 70.7 µM, the cytotoxicity at 100 µM (A375 cells) was 43.2% and the fraction unbound [2] was 0.145. For the same molecule, the “logk10 (HSA retention factor)” value [2] was 0.74, the “Cell Toxicity A549 % (100 μΜ)” value (A549 cells) was “no” and the “%HOA estimated human oral absorption” value [3] was 99.7%. For the same molecule, the “logkw (IAM retention factor)” value [3] was 2.48.

CC(=O)Oc1ccc(-c2c(C)c3cc(Br)ccc3oc2=O)cc1 [Compound 3i, 3-(4-acetyloxyphenyl)-6-bromo-4-methyl-chromen-2-one] gave an IC50 [1] of 70.7 µM, a cytotoxicity at 100 µM (A375 cells) of 50 to 60% and a fraction unbound [2] of 0.059. For the same molecule, the “logk10 (HSA retention factor)” value [2] was 1.14, the “Cell Toxicity A549 % (100 μΜ)” value (A549 cells) was “no” and the “%HOA estimated human oral absorption” value [3] was 99.8%. The “logkw (IAM retention factor)” value [3] was 3.28.

In the case of Cc1c(-c2ccc(O)cc2)c(=O)oc2c(Br)cc(Br)cc12 [Compound 4k, 6,8-dibromo-3-(4-hydroxyphenyl)-4-methyl-chromen-2-one], the IC50 [1] is reported as 36.9 µM, the “Cell Toxicity A375 % (100 μΜ)” value (A375 cells; 24 h) is reported as “no” and the cytotoxicity at 100 µM (A549 cells) is reported as 66.5%.
